Article PMC4805166, “Synthetic Cyclolipopeptides Selective against Microbial, Plant and Animal Cell Targets by Incorporation of D-Amino Acids or Histidine” (PLoS ONE, 2016)
Where a SMILES comes first, the peptide text is derived from it. [ ]: non-standard residue; d: D form. The star is where a group is joined. Lauroyl = CCCCCCCCCCCC(=O)*; Octanoyl = CCCCCCCC(=O)*; Hexanoyl = CCCCCC(=O)*; Butyryl = CCCC(=O)*

How the values were obtained:
[1] = test system: Pseudomonas syringae pv. syringae EPS94; assay type: cell-based; details: 48 h
Experimental: (§1) The following plant pathogenic bacterial strains were used: Erwinia amylovora PMV6076 (Institut National de la Recherche Agronomique, Angers, France), Pseudomonas syringae pv. syringae EPS94 (Institut de Tecnologia Agroalimentària, Universitat de Girona, Spain) and Xanthomonas axonopodis pv. vesicatoria 2133–2 (Instituto Valenciano de Investigaciones Agrarias, Valencia, Spain). All bacteria were stored in Luria Bertani (LB) broth supplemented with glycerol (20%) and maintained at -80°C. Bacteria were scrapped from LB agar after growing for 24–48 h at 25°C. The cell material was suspended in sterile water to obtain a suspension of 10^8 CFU mL^-1.
(§2) Lyophilized peptides were solubilized in sterile Milli-Q water to a final concentration of 1 mM and filter sterilized through a 0.22-μm pore filter. For minimum inhibitory concentration (MIC) assessment, dilutions of the compounds were made to obtain a stock concentration of […]. For antibacterial activity twenty microlitres of each dilution were mixed in a microtiter plate well with 20 μL of the corresponding suspension of the bacterial indicator, 160 μL of Trypticase Soy Broth (TSB) (BioMèrieux, France) to a total volume of 200 μL. For antifungal activity 20 μL of each stock solution were mixed in a microtiter plate well with 80 μL of the corresponding suspension of the fungal pathogen and 100 μL of double concentrated PDB to a total volume of 200 μL containing 0.003% w/v of choramphenicol.
(§3) Three replicates for each strain, compound and concentration were used. Microbial growth was determined by optical density measurement at 600 nm (Bioscreen C, Labsystem, Helsinki, Finland). For antibacterial activity microplates were incubated at 25°C with 20 sec shaking before hourly absorbance measurement for 48 h. For antifungal activity microplates were incubated at 20°C with 1 min shaking before absorbance measurement that were done every two hours during seven days. The experiment was repeated twice. The MIC was taken as the lowest compound concentration with no growth at the end of the experiment.

[2] = test system: Xanthomonas axonopodis pv. vesicatoria 2133–2; assay type: cell-based; details: TSB, 25°C, 48 h, OD 600 nm; tested at 3.1, 6.2, 12.5, 25, 50 μM; three replicates, experiment repeated twice; MIC = lowest concentration with no growth
Experimental: as §1, §2, §3

[3] = test system: Erwinia amylovora PMV6076; experiment: MIC, in vitro growth inhibition; assay type: cell-based; details: TSB, 25°C, 48 h, OD 600 nm; tested at 3.1, 6.2, 12.5, 25, 50 μM; three replicates, experiment repeated twice; MIC = lowest concentration with no growth
Experimental: as §1, §2, §3

[4] = test system: erythrocyte suspensions of horse blood; details: horse erythrocytes 5% vol/vol, TRIS buffer pH 7.2, 1 h at 37°C, absorbance 540 nm, relative to melittin 100 μM, ± confidence interval (α = 0.05); for Hemolysis (%) 150 µM: 150 µM peptide; for Hemolysis (%) 250 µM: 250 µM peptide;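 for all read-outs here: Read-out is hemoglobin release into the supernatant, with a buffer-only blank subtracted as the 0% baseline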
Experimental: Blood was centrifuged at 6000g for 5 min, washed three times with TRIS buffer (10 mM TRIS, 150 mM NaCl, pH 7.2) and diluted.
Compounds were solubilized in TRIS buffer and mixed with horse erythrocytes and the final concentrations tested were 250 and 150 μM. The mixture was incubated under continuous shaking for 1 h at 37°C. Then, the tubes were centrifuged at 3500g for 10 min, 80 μL aliquots of the supernatant transferred to 100-well microplates (Bioscreen), diluted with 80 μL water, and the absorbance measured at 540 nm (Bioscreen). Complete hemolysis was obtained by the addition of melittin at 100 μM (Sigma-Aldrich Corporation, Madrid, Spain). The percentage of hemolysis (H) was calculated using the equation: H = 100×[(Op−Ob)/(Om−Ob)], where Op was the density for a given compound concentration, Ob for the buffer, and Om for the melittin positive control.

[5] = test system: Fusarium oxysporum f. sp. lycopersici FOL 3 race 2; experiment: MIC, antifungal growth inhibition; assay type: cell-based; details: PDB with 0.003% chloramphenicol, 20°C, seven days, OD 600 nm; tested at 3.1, 6.2, 12.5, 25, 50 μM; three replicates, repeated twice
Experimental: Fusarium oxysporum f. sp. lycopersici FOL 3 race 2 (ATCC 201829, American Type Culture Collection) was used as fungal pathogen. The strain was cultured on potato dextrose agar (PDA) plates (Difco) and microconidia were obtained after growth at 25°C. The concentration of conidia was determined using a hemacytometer and adjusted to 10^4 conidia mL^-1.
as §2, §3

SMILES	MIC Pss [1]	MIC Xav [2]	MIC Ea [3]	Hemolysis (%) 150 µM [4]	Hemolysis (%) 250 µM [4]	MIC Fo [5]
CCCCCCCCCCCC(=O)NCCCC[C@@H]1NC(=O)[C@H](CCCCN)NC(=O)[C@H](CC(C)C)NC(=O)[C@H](CCCCN)NC(=O)[C@H](CCCCN)NC(=O)[C@H](CCC(N)=O)NC(=O)[C@H](CC(C)C)NC(=O)[C@H](CCCCN)NC(=O)[C@H](CCCCN)NC(=O)[C@H](Cc2ccccc2)NC1=O [BPC530, c(KKLKK(CO-C11H23)FKKLQ)] (cyclo(FKKLQKKLKK(Lauroyl)))	12.5 to 25 µM	6.2 to 12.5 µM	12.5 to 25 µM	89 ± 7%	91 ± 9%	6.2 to 12.5 µM
CCCCCC(=O)NCCCC[C@@H]1NC(=O)[C@H](CCCCN)NC(=O)[C@H](CC(C)C)NC(=O)[C@H](CCCCN)NC(=O)[C@H](CCCCN)NC(=O)[C@H](CCC(N)=O)NC(=O)[C@H](CC(C)C)NC(=O)[C@H](CCCCN)NC(=O)[C@H](CCCCN)NC(=O)[C@@H](Cc2ccccc2)NC1=O [BPC624, c(KKLKK(CO-nC5H11)fKKLQ)] (cyclo(KKLKK(Hexanoyl)[dF]KKLQ))	12.5 to 25 µM	6.2 to 12.5 µM	25 to 50 µM	53 ± 5%	64 ± 9%	6.2 to 12.5 µM
CCCCCC(=O)NCCCC[C@@H]1NC(=O)[C@H](CCCCN)NC(=O)[C@H](Cc2ccccc2)NC(=O)[C@H](CCCCN)NC(=O)[C@H](CCCCN)NC(=O)[C@H](CC(C)C)NC(=O)[C@H](CCCCN)NC(=O)[C@H](CCCCN)NC(=O)[C@H](CCC(N)=O)NC(=O)[C@H](CC(C)C)NC1=O [BPC582] (cyclo(FKK(Hexanoyl)LQKKLKK))	6.2 to 12.5 µM	6.2 to 12.5 µM	12.5 to 25 µM	92 ± 3%	96 ± 10%	12.5 to 25 µM
CCCCCCCC(=O)NCCCC[C@@H]1NC(=O)[C@H](CCCCN)NC(=O)[C@H](CC(C)C)NC(=O)[C@H](CCCCN)NC(=O)[C@H](CCCCN)NC(=O)[C@H](CCC(N)=O)NC(=O)[C@H](CC(C)C)NC(=O)[C@H](CCCCN)NC(=O)[C@H](CCCCN)NC(=O)[C@H](Cc2c[nH]cn2)NC1=O [BPC670, c(KKLKK(CO-C7H15)HKKLQ)] (cyclo(HKKLQKKLKK(Octanoyl)))	12.5 to 25 µM	12.5 to 25 µM	25 to 50 µM	34 ± 1%	40 ± 1%	3.1 to 6.2 µM
CCCCCC(=O)NCCCC[C@@H]1NC(=O)[C@H](CCCCN)NC(=O)[C@H](CC(C)C)NC(=O)[C@H](CCCCN)NC(=O)[C@H](CCCCN)NC(=O)[C@H](CCC(N)=O)NC(=O)[C@H](CC(C)C)NC(=O)[C@H](CCCCN)NC(=O)[C@H](CCCCN)NC(=O)[C@H](Cc2c[nH]cn2)NC1=O [BPC636, c(KKLKK(CO-nC5H11)HKKLQ)] (cyclo(HKKLQKKLKK(Hexanoyl)))	6.2 to 12.5 µM	12.5 to 25 µM	25 to 50 µM	5 ± 2%	16 ± 5%	6.2 to 12.5 µM
CCCC(=O)NCCCC[C@@H]1NC(=O)[C@H](CCCCN)NC(=O)[C@H](CCC(N)=O)NC(=O)[C@H](CC(C)C)NC(=O)[C@H](CCCCN)NC(=O)[C@H](CCCCN)NC(=O)[C@H](Cc2c[nH]cn2)NC(=O)[C@H](CCCCN)NC(=O)[C@H](CCCCN)NC(=O)[C@H](CC(C)C)NC1=O [BPC720] (cyclo(HKKLQKK(Butyryl)LKK))	12.5 to 25 µM	12.5 to 25 µM	>50 µM	3 ± 1%	4 ± 1%	<3.1 µM
